Here are results for 2 compounds from US20260219274A1, “POLYOL SWEETNERS AND CARDIOVASCULAR AND THROMBOTIC EVENT RISK” (THE CLEVELAND CLINIC FOUNDATION, priority 2023, published 2026).

Molecules are shown by their SMILES.

This assay concerns washed human platelets. As to the kind of experiment: Intracellular calcium measurements in Fura 2-filled washed platelets. In kind it is cell-based. The note with it: for thrombin-evoked intracellular Ca2+ release: submaximal (0.02 U) thrombin, pre-incubation with the polyol. Here is the method: Measurement of intracellular calcium release in washed platelets was performed as previously described.^41 Further details are provided in supplemental methods.
To isolate washed platelets for intracellular Ca^2+ measurements, PRP was prepared as described above. Next, 100 nM prostaglandin E1 (PGE-1, Catalogue #P5512, Sigma, St. Louis, MO, USA) was added to the PRP and centrifuged at 500×g for 20 min at 22° C. as previously described.^6 After a gentle wash in a modified phosphate buffer saline (NaCl (137 mM), KCl (2.7 mM), Na2HPO4 (12 mM), MgCl2 (1 mM), and glucose (5.5 mM), pH 7.4) with PGE-1 (100 nM), the platelet pellet was spun again at 500×g for 20 min. The platelet pellet was re-suspended in modified Hank's buffered salt solution (HBSS-BSA-glucose; NaCl (0.137 M), KCl (5.4 mM), Na2HPO4 (0.25 mM KH2PO4 (0.44 mM), CaCl2 (1.3 mM), MgSO4 (1.0 mM), NaHCO3 (4.2 mM), glucose (5 mM) and BSA (0.1%)) with 100 nM PGE-1 and incubated with Fura 2-AM ([…]) at 22° C. After 30 min of incubation, an additional centrifugation at 500×g for 30 min was performed to remove excess Fura 2-AM. After resuspension in modified Hank's buffered salt solution the platelet pellet was incubated with xylitol at the indicated concentrations or vehicle for 30 min at 22° C. Intracellular Ca^2+ release was initiated by submaximal concentration of thrombin (0.02 U/mL) and changes in intracellular Ca^2+ monitored via Fura 2-AM fluorescence using 340/380 nm dual-wavelength excitation and an emission of 510 nm.
Washed platelets for intracellular Ca^2+ measurements were prepared by adding 100 nM prostaglandin E1 (PGE-1, Catalogue #P5512, Sigma, St. Louis, MO, USA) to PRP and centrifugation at 500×g, 20 min at 22° C. as previously described^26,51. […] Intra-cellular calcium release was induced by submaximal concentration of thrombin (0.02 U/mL) and changes monitored via Fura 2-AM fluorescence using 340/380 nm dual-wavelength excitation and an emission of 510 nm.
Background: Calcium flux is commonly read through the fluorescence of an indicator in the cells.

Regarding `OC[C@@H](O)[C@@H](O)CO` [erythritol], the “thrombin-evoked intracellular Ca2+ release” value is “enhanced”. For the same compound, the “erythritol concentration eliciting significant increase in stimulus-dependent (thrombin) intracellular calcium” value (threshold, FIG. 17) turned out to be 45 µM.
Turning to `OC[C@@H](O)[C@H](O)[C@@H](O)CO` [xylitol], the “thrombin-evoked intracellular Ca2+ release” value is on record as “dose-dependently enhanced”.
